{"source": "patent US20230339991A1", "about": "“HYPOXIA-ACTIVATED DNA ALKYLATING AGENT AND MEDICAL USE THEREOF” (ASCENTAWITS PHARMACEUTICALS, LTD., priority 2020, published 2023)", "key": {"Plasma stability, dog": {"experiment": "Plasma stability, dog", "details": "for Remaining percentage: after 30 minutes", "protocol": "The frozen plasma was immediately melted in a water bath of 37° C. The plasma was centrifuged at 3, 220 g for 10 minutes to remove the blood clots and the supernatant was collected into a new test tube. The pH of the plasma was checked and recorded. Note: a. Only plasma that has been melted no more than twice since arrival was used; b. Only plasma in the range of pH 7 to pH 8 was used.\n1 mM of working solutions of the test compound and the control compound mevinolin were prepared in DMSO. 1 mM of the working solution of the control compound solution in […] was prepared in acetonitrile. 4 μL of the working solution was added to 796 μL of pre-incubated plasma to achieve 5 μM of final concentration. The final concentration of solvent was 0.5%.\nThe aliquots of 50 μL of the standard addition plasma were added to new test tubes and incubated in the water bath of 37° C. at approximately 60 rpm for 2 hours. The assay is performed in duplicate. At the end of the two hour incubation, 300 μL of quenched solution at room temperature (acetonitrile containing internal standards (acetonitrile, 100 nM Alprazolam, 500 nM Labetalol and 2 μM ketoprofen)) was added to terminate the reaction. Samples at time 0 were prepared by adding 50 μL of standard addition plasma to the new test tubes with 300 μL of quenched solution at room temperature. The test tubes were mixed by vortex for 5 minutes. The samples in the plates were centrifuged at 3, 220×g for 30 minutes at 4° C. to precipitate the proteins. 100 μL of supernatant was transferred to a new plate. The supernatant was diluted with 100 μL of water, mixed well and analysed using LC-MS/MS."}, "Plasma stability, mouse": {"experiment": "Plasma stability, mouse", "format": "in vitro ADME", "details": "for Remaining percentage: after 30 minutes; for plasma stability: mouse plasma", "protocol": "The pH of the plasma was checked and recorded. Note: a.\nThe final concentration of solvent was 0.5%.\nThe assay is performed in duplicate."}, "P-gp": {"target": "P-gp (Homo sapiens, UniProt P08183)", "sequence (P08183 whole entry)": "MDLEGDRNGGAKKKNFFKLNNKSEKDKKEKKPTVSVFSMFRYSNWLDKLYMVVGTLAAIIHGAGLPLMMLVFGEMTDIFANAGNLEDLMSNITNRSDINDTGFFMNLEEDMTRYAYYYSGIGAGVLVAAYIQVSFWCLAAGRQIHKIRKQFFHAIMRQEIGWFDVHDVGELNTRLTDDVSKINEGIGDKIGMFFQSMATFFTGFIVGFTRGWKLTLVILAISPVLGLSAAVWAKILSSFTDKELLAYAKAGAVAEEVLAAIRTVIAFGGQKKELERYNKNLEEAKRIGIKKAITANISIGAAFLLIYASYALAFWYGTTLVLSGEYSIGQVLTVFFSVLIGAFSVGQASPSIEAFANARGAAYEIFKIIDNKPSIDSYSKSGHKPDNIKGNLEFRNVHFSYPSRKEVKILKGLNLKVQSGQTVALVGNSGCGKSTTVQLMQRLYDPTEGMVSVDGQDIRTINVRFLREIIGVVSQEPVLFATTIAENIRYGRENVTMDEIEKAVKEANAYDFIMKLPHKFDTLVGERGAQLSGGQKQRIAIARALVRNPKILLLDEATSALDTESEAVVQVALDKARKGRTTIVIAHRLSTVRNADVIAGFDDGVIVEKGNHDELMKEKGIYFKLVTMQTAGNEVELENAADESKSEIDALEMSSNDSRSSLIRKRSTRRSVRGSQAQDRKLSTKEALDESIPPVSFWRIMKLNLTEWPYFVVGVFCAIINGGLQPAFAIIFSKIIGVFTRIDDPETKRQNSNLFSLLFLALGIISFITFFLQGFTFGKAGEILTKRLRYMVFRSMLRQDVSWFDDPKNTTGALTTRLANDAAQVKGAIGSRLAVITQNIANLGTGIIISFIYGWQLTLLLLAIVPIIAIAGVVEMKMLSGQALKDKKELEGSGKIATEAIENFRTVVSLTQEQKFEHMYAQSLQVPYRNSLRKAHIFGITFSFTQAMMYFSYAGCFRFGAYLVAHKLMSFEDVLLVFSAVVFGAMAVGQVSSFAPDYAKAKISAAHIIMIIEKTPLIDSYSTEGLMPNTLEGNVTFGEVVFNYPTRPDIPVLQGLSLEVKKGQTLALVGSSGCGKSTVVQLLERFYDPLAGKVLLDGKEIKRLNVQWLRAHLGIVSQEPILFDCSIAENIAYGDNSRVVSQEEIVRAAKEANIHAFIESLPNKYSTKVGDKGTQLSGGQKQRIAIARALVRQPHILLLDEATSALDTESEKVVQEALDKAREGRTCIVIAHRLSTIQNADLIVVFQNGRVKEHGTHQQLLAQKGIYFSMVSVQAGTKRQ", "experiment": "P-gp substrate evaluation, MDCKII-MDR1 penetration test", "details": "for recovery at 2 h: dog; for Pgp substrate status: with and without verapamil", "protocol": "(1) MDCKII-MDR1 cells were cultured in the cell culture bottle. The conditions of the incubator were 37° C., 5% of CO2, and 95% of the relative humidity. When the cell growth confluence was up to 70-90%, the cells were inoculated to the transwell.\nThe cell suspension was transferred to the upper compartment of the 96-well transwell, wherein each upper compartment contains 50 μL of the cell suspension. The final inoculum density was 5.45×10^5 cells/cm^2.\n(1) The transwell culture plate of the MDCKII-MDRT cells was taken out from the incubator. The cell monolayer membrane was rinsed two times with the buffer solution and incubated at 37° C. for 30 min.\n(2) The transport rate that the compound was transported from the top-end to the base-end was tested. 75 μL of the buffer solution contained the sample was added to each upper compartment (top-end), and 235 μL of the buffer solution was added to each lower compartment (base-end).\n(3) The transport rate that the compound was transported from the base-end to the top-end was tested. 75 μL of the buffer solution was added to each upper compartment (top-end), and 235 μL of the buffer solution contained the sample was added to each lower compartment (base-end).\n(6) The upper and lower transits were merged up and then incubated at 37° C. for 2 h.\n(7) After the incubation was finished, 50 μL of the samples from each well of the upper compartment and the lower compartment of the transwell culture plate were respectively added to new sample tubes. 200 μL of the acetonitrile containing the internal standard (100 nM Alprazolam, 200 nM Labetalol, 200 nM caffeine and 2 μM Ketoprofen) was added to each sample tube. After the sample tubes were vortexed for 10 min, they were centrifuged at 3220 g for 30 min. 100 μL of the supernatant was taken and diluted with the same volume of the water to perform the LC-MS/MS analysis. Each sample was adopted to the three parallel incubation.\nThe peak area was calculated by the result of the ion chromatography. The permeability coefficient (Papp, unit: cm/s×10^−6) of the compound was calculated by the formula: […]\nIn the formula, “VA” refers to the volume of the solution on the acceptor (Ap→Bl was 0.235 mL, and Bl→Ap was 0.075 mL), “Area” refers to the area of the permeable membrane of the 96-well transwell (0.143 cm^2), “time” refers to the incubation time (in second), “[drug]acceptor” refers to the drug concentration of the acceptor after the incubation, and “[drug]initial, donor” refers to the initial concentration of the drug administration before the incubation.\nThe efflux ratio was calculated by the following formula: […]\nIn the formula, “Papp (B-A)” refers to the permeability coefficient from the base-end to the top-end, and the term “Papp (A-B)” refers to the permeability coefficient from the top-end to the base-end.\nThe recovery was calculated by the following formula: […]\nIn the formula, “VA” refers to the volume of the solution on the acceptor (mL), “VD” refers to the volume of the solution on the donor (mL), “[drug]acceptor” refers to the drug concentration of the acceptor after the incubation, “[drug]donor” refers to the drug concentration of the donor after the incubation, and the term “[drug]initial, donor” refers to the initial concentration of the drug administration before the incubation."}, "PANC1 cells": {"test_system": "PANC1 cells", "experiment": "Clonogenic assay, PANC1", "format": "cell-based, human", "details": "for IC90: Homo sapiens, PANC-1, 3 h", "protocol": "(§1) The following PSN-1 cells, PANC1 cells, MiaPaCa-2 cells, H460 cells, DLD-1 WT (wild type) cells, DLD-1 BRCA2 KO (BRCA2 deletion) cells were seeded in 10 cm vitreous cell culture plates at specific cell numbers and incubated for 2 days at 37° C. and under the conditions of 5% CO2, 95% air and 100% relative humidity. On day 3, test compounds TH302 or AST-002-P2 at the specific concentrations were added to the cells, and incubated for 3 hours together with the cells under normoxic (21% O2) and hypoxic conditions (<0.01% O2), respectively. After cells were stimulated by compounds, the cells were washed once with 1×PBS and digested into single cells with pancreatic enzymes for cell counting. The above cells in specific cell numbers were reseeded in a new culture plate and cultured for 7 days to perform single cell colony formation. When single cells in compound culture plates stimulated under normoxic conditions proliferated to about 50 cells, the cultures were removed and stained with 0.5% crystal violet for 40 minutes. After staining, cells were counted for colonies using Colony Counter (VWR) and the IC90 was calculated."}, "MiaPaCa-2 cells": {"test_system": "MiaPaCa-2 cells", "experiment": "Clonogenic assay, MiaPaCa-2", "format": "cell-based, human", "details": "for IC90: Homo sapiens, MIA PaCa-2, 3 h", "protocol": "as §1"}, "[1]": {"details": "MDCK-MDR1, Recovery (%) AP-BL, verapamil 0 μM"}, "[2]": {"details": "MDCK-MDR1, Recovery (%) AP-BL, verapamil 100 μM"}, "[3]": {"details": "MDCK-MDR1, Recovery (%) BL-AP, verapamil 100 μM"}, "[4]": {"details": "21% O2, read-out: IC90 Normoxia"}, "[5]": {"details": "<0.01% O2, read-out: IC90 Hypoxia"}}, "note": "Several values for one entry are separate records, joined by “and”; a condition that tells them apart may be missing. Identical values can stand only once. Like-named read-outs stand apart in the source and are kept apart here. Marks after values point to notes of the source that are not given here."}
{"compound": "O=[N+]([O-])c1ccc(C(OP(=O)(N2CC2)N2CC2)C(F)(F)F)c2ccccc12", "note": "(racemic) [Compound A]", "values": [{"measurement": "Remaining percentage (%)", "setting": "Plasma stability, dog; Dog plasma, 15 min", "result": "107 ± 2.54", "unit": "%"}, {"measurement": "Remaining percentage (%)", "setting": "Plasma stability, dog; Dog plasma, 60 min", "result": "101 ± 5.20", "unit": "%"}, {"measurement": "Remaining percentage (%)", "setting": "Plasma stability, dog; Dog plasma, 90 min", "result": "105 ± 3.67", "unit": "%"}, {"measurement": "Remaining percentage (%)", "setting": "Plasma stability, dog; Dog plasma, 120 min", "result": "98.9% and 98.9 ± 0.476%"}, {"measurement": "Remaining percentage (%)", "setting": "Plasma stability, dog; Dog plasma, 2 h time course, 0 min", "result": 100, "unit": "%"}, {"measurement": "Remaining percentage", "setting": "Plasma stability, dog; Dog plasma", "result": 85.04, "unit": "%"}, {"measurement": "t½", "setting": "Plasma stability, dog; Dog plasma, in vitro", "result": ">373* min"}, {"measurement": "Remaining percentage (%)", "setting": "Plasma stability, dog; Dog plasma, time course, 30 min", "result": "105 ± 1.27", "unit": "%"}, {"measurement": "half-life at 5 µM", "setting": "Plasma stability, dog; dog plasma", "result": "> 6.22", "unit": "h"}, {"measurement": "plasma stability", "setting": "Plasma stability, dog; dog plasma", "result": "stable"}, {"measurement": "Remaining percentage (%)", "setting": "Plasma stability, mouse; Mouse plasma, 15 min", "result": "104 ± 2.96", "unit": "%"}, {"measurement": "Remaining percentage (%)", "setting": "Plasma stability, mouse; Mouse plasma, 60 min", "result": "86.6 ± 3.16", "unit": "%"}, {"measurement": "Remaining percentage (%)", "setting": "Plasma stability, mouse; Mouse plasma, 90 min", "result": "76.9 ± 2.40", "unit": "%"}, {"measurement": "Remaining percentage (%)", "setting": "Plasma stability, mouse; Mouse plasma, 120 min", "result": "66.4% and 66.4 ± 0.993%"}, {"measurement": "Remaining percentage (%)", "setting": "Plasma stability, mouse; Mouse plasma, 2 h time course, 0 min", "result": 100, "unit": "%"}, {"measurement": "Remaining percentage", "setting": "Plasma stability, mouse; Mouse plasma", "result": 55.07, "unit": "%"}, {"measurement": "half-life at 5 µM", "setting": "Plasma stability, mouse; Mouse plasma, in vitro, read-out: t½", "result": 3.15, "unit": "h"}, {"measurement": "Remaining percentage (%)", "setting": "Plasma stability, mouse; Mouse plasma, time course, 30 min", "result": "97.7 ± 4.71", "unit": "%"}, {"measurement": "plasma stability", "setting": "Plasma stability, mouse", "result": "unstable"}]}
{"compound": "O=[N+]([O-])c1ccc([C@@H](OP(=O)(N2CC2)N2CC2)C(F)(F)F)c2ccccc12", "note": "(single isomer, unassigned) [Compound C]", "values": [{"measurement": "recovery at 2 h", "setting": "P-gp; [1]", "result": 57.8, "unit": "%"}, {"measurement": "recovery at 2 h", "setting": "P-gp; [2]", "result": 61.5, "unit": "%"}, {"measurement": "recovery at 2 h", "setting": "P-gp; [3]", "result": 66.3, "unit": "%"}, {"measurement": "Pgp substrate status", "setting": "P-gp", "result": "not substrates for Pgp"}, {"measurement": "IC90", "setting": "PANC1 cells; [4]", "result": "> 10", "unit": "µM"}, {"measurement": "IC90", "setting": "PANC1 cells; [5]", "result": "> 1", "unit": "µM"}, {"measurement": "IC90", "setting": "MiaPaCa-2 cells; [4]", "result": "> 10", "unit": "µM"}, {"measurement": "IC90", "setting": "MiaPaCa-2 cells; [5]", "result": 0.159, "unit": "µM"}, {"measurement": "HCR", "setting": "MiaPaCa-2 cells; IC90 ratio normoxic/N2", "result": ">63"}, {"measurement": "HCR", "setting": "MiaPaCa-2 cells; IC90 ratio normoxic/N2, listed as compound C", "result": "> 63"}]}
{"compound": "O=[N+]([O-])c1ccc([C@H](OP(=O)(N2CC2)N2CC2)C(F)(F)F)c2ccccc12", "note": "[Compound B]", "values": [{"measurement": "recovery at 2 h", "setting": "P-gp; [1]", "result": 59.3, "unit": "%"}, {"measurement": "recovery at 2 h", "setting": "P-gp; [2]", "result": 65.2, "unit": "%"}, {"measurement": "recovery at 2 h", "setting": "P-gp; [3]", "result": 68.3, "unit": "%"}, {"measurement": "Pgp substrate status", "setting": "P-gp", "result": "not substrates for Pgp"}]}
{"compound": "CC(OP(=O)(N1CC1)N1CC1)c1ccc([N+](=O)[O-])c2ccccc12", "note": "(stereo not shown) [Compound D]", "values": [{"measurement": "Remaining percentage", "setting": "Plasma stability, dog; Dog plasma", "result": 91.95, "unit": "%"}, {"measurement": "plasma stability", "setting": "Plasma stability, dog; dog plasma", "result": "relatively stable"}, {"measurement": "Remaining percentage", "setting": "Plasma stability, mouse; Mouse plasma", "result": 87.35, "unit": "%"}, {"measurement": "plasma stability", "setting": "Plasma stability, mouse", "result": "relatively unstable"}]}
{"compound": "Cn1c(COP(=O)(NCCBr)NCCBr)cnc1[N+](=O)[O-]", "note": "[TH-302, Evofosfamide]", "values": [{"measurement": "IC90", "setting": "PANC1 cells; [4]", "result": "> 100", "unit": "µM"}, {"measurement": "IC90", "setting": "PANC1 cells; [5]", "result": 7.29, "unit": "µM"}, {"measurement": "HCR", "setting": "PANC1 cells; IC90 ratio normoxic/N2", "result": ">13.7"}, {"measurement": "IC90", "setting": "MiaPaCa-2 cells; [4]", "result": 9.68, "unit": "µM"}, {"measurement": "IC90", "setting": "MiaPaCa-2 cells; [5]", "result": 0.388, "unit": "µM"}, {"measurement": "HCR", "setting": "MiaPaCa-2 cells; IC90 ratio normoxic/N2", "result": 25}]}
